# Experiments:
# [1] = biological target: T1, bovine beta-2 adrenoceptor (Bos taurus, UniProt Q28044); experiment: cAMP assay in CHO cells transfected with the bovine beta-2 adrenoceptor; type: cell-based; details: cAMP (DiscoveRx Hit Hunter cAMP II) in CHO cells transfected with bovine beta-2 adrenoceptor, 30 minutes with compound, 0.5 mM IBMX
# T1 construct: expressed in transfected cells; host or cells: CHO cells
# Method: (§1) CHO cells transfected with the bovine or porcine beta-2 adrenceptors were maintained in culture in DMEM/HAMS F12+10% FBS+2 mM glutamine+500 μg/ml geneticin (for the porcine receptor the medium was supplement with 1.5 mM HEPES) at 37° C. with a 5% CO2 atmosphere.
# (§2) Cells were plated into 96 well viewplates in medium and incubated overnight at 37° C. with a 5% CO2 atmosphere. The cells were pre-incubated with 0.5 mM IBMX in PBS for 30 minutes prior to incubation with increasing concentrations of experimental compound (5×10^−12 to 10^−5 M) for 30 minutes at 37° C. with a 5% CO2 atmosphere. At the end of the incubation time the compound was removed and the cells assayed for cAMP using the DiscoveRx Hit Hunter cAMP II™ assay kit.
# (§3) Duplicate samples were run for each experimental compound and the data generated was analysed using EC50 analysis software in Graphpad Prism.
# [2] = biological target: T2, porcine beta-2 adrenoceptor (Sus scrofa, UniProt Q28997); experiment: cAMP assay in CHO cells transfected with the porcine beta-2 adrenoceptor; type: cell-based; details: cAMP (DiscoveRx Hit Hunter cAMP II) in CHO cells transfected with porcine beta-2 adrenoceptor, 30 minutes with compound, 0.5 mM IBMX
# T2 construct: expressed in transfected cells; host or cells: CHO cells
# Method: as §1, §2, §3
# T1 sequence (Q28044 whole entry): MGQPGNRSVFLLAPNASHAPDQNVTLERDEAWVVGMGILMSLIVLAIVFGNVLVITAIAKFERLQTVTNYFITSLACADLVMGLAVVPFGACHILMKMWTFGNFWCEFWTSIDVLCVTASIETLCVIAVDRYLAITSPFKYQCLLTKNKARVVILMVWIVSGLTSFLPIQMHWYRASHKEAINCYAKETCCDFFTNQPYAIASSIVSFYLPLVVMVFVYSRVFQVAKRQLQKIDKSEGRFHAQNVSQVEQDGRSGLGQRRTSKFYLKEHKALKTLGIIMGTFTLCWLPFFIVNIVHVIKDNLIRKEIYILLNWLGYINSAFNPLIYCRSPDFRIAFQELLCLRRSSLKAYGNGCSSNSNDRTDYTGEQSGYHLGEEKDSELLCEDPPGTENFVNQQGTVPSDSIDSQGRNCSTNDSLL
# T2 sequence (Q28997 whole entry): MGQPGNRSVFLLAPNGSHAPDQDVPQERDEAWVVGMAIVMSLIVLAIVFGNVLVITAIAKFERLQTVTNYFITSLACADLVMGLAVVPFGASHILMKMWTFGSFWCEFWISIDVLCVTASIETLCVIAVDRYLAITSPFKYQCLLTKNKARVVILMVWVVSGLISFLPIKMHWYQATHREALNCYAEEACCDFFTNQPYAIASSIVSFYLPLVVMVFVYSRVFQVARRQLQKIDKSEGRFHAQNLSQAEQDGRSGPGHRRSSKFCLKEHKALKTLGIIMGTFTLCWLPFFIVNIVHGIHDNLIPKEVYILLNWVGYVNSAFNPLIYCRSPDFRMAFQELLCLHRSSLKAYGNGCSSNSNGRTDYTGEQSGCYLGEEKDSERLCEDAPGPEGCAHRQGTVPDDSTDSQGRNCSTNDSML
SMILES,EC50 [1] [nM],EC50 [2] [nM]
"CC(CCc1cccc(Cl)c1O)N[C@@H]1CCn2c(=O)[nH]c3cccc(c32)[C@H]1O (single isomer, unassigned) [Example 5b, 6-{[3-(3-Chloro-2-hydroxyphenyl)-1-methylpropyl]amino}-7-hydroxy-4,5,6,7-tetrahydroimidazo[4,5,1-jk][1]benzazepin-2(1H)-one]",1.6,2.9
"CC(CCc1ccccc1O)N[C@@H]1CCn2c(=O)[nH]c3cccc(c32)[C@H]1O (single isomer, unassigned) [Example 6d, 7-Hydroxy-6-{[3-(2-hydroxyphenyl)-1-methylpropyl]amino}-4,5,6,7-tetrahydroimidazo[4,5,1-jk][1]benzazepin-2(1H)-one]",315,410
"CC(CCc1ccc(O)c(F)c1)NC1CCn2c(=O)[nH]c3cccc(c32)C1O (single isomer, unassigned) [Example 58, 6-{[3-(3-Fluoro-4-hydroxyphenyl)-1-methylpropyl]amino}-7-hydroxy-4,5,6,7-tetrahydroimidazo[4,5,1-jk][1]benzazepin-2(1H)-one]",1.1,2.4
"CC(CCc1ccc(O)cc1)N[C@@H]1CCn2c(=O)[nH]c3cccc(c32)[C@H]1O (single isomer, unassigned) [Example 2d, 7-Hydroxy-6-{[3-(4-hydroxyphenyl)-1-methylpropyl]amino}-4,5,6,7-tetrahydroimidazo[4,5,1-jk][1]benzazepin-2(1H)-on]",3.6,1.9
"CC(CCc1cccc(F)c1O)N[C@@H]1CCn2c(=O)[nH]c3cccc(c32)[C@H]1O (single isomer, unassigned) [Example 28a]",1.5,1.8
"COc1ccccc1CCC(C)N[C@@H]1CCn2c(=O)[nH]c3cccc(c32)[C@H]1O (mixture of isomers) [Example 20, 7-Hydroxy-6-{[3-(2-methoxyphenyl)-1-methylpropyl]amino}-4,5,6,7-tetrahydroimidazo[4,5,1-jk][1]benzazepin-2(1H)-one]",7.5,35.8
"CC(CCc1ccc(OC(C)C)cc1)N[C@@H]1CCn2c(=O)[nH]c3cccc(c32)[C@H]1O (mixture of isomers) [Example 16, 7-Hydroxy-6-{[3-(4-isopropoxyphenyl)-1-methylpropyl]amino}-4,5,6,7-tetrahydroimidazo[4,5,1-jk][1]benzazepin-2(1H)-one]",17.3,5.5
"CC(CCc1ccc(C(=O)NCC(F)(F)F)cc1)N[C@@H]1CCn2c(=O)[nH]c3cccc(c32)[C@H]1O (single isomer, unassigned) [Example 52, 4-[-3-{[7-Hydroxy-2-oxo-1,2,4,5,6,7-hexahydroimidazo[4,5,1-jk][1]benzazepin-6-yl]amino}butyl]-N-(2,2,2-trifluoroethyl)benzamide]",7.7,38.4
"CC(CCc1ccc2c(c1)CCO2)N[C@@H]1CCn2c(=O)[nH]c3cccc(c32)[C@H]1O (single isomer, unassigned) [Example 3c, 6-{[3-(2,3-Dihydro-1-benzofuran-5-yl)-1-methylpropyl]amino}-7-hydroxy-4,5,6,7-tetrahydroimidazo[4,5,1-jk][1]benzazepin-2(1H)-one]",27.1,5.6
"CC(CCc1ccc(OCC2CC2)cc1)N[C@@H]1CCn2c(=O)[nH]c3cccc(c32)[C@H]1O (mixture of isomers) [Example 1a, 6-({3-[4-(Cyclopropylmethoxy)phenyl]-1-methylpropyl}amino)-7-hydroxy-4,5,6,7-tetrahydroimidazo[4,5,1-jk][1]benzazepin-2(1H)-one]",14,5.9
"COc1ccc(O)c(CCC(C)N[C@@H]2CCn3c(=O)[nH]c4cccc(c43)[C@H]2O)c1 (mixture of isomers) [Example 21, 7-Hydroxy-6-{[3-(2-hydroxy-5-methoxyphenyl)-1-methylpropyl]amino}-4,5,6,7-tetrahydroimidazo[4,5,1-jk][1]benzazepin-2(1H)-one]",3.2,3.1
"CC(CC(C)(C)c1ccccc1)N[C@@H]1CCn2c(=O)[nH]c3cccc(c32)[C@H]1O (single isomer, unassigned) [Example 14b, 6-[(1,3-Dimethyl-3-phenylbutyl)amino]-7-hydroxy-4,5,6,7-tetrahydroimidazo[4,5,1-jk][1]benzazepin-2(1H)-one]",3.4,4.2
"CC(CCc1cccc(Cl)c1O)N[C@@H]1CCn2c(=O)[nH]c3cccc(c32)[C@H]1O (single isomer, unassigned) [Example 5a, 6-{[3-(3-Chloro-2-hydroxyphenyl)-1-methylpropyl]amino}-7-hydroxy-4,5,6,7-tetrahydroimidazo[4,5,1-jk][1]benzazepin-2(1H)-one]",307,473
"C[C@H](CCc1cccc(Cl)c1O)N[C@@H]1CCn2c(=O)[nH]c3cccc(c32)[C@H]1O (single isomer, unassigned) [Example 5c]",2.7,6
"CC(CCc1ccc(Cl)cc1O)N[C@@H]1CCn2c(=O)[nH]c3cccc(c32)[C@H]1O (mixture of isomers) [Example 26, 6-{[3-(4-Chloro-2-hydroxyphenyl)-1-methylpropyl]amino}-7-hydroxy-4,5,6,7-tetrahydroimidazo[4,5,1-jk][1]benzazepin-2(1H)-one]",3.1,1.7
"CC(CCc1cccc(C(F)(F)F)c1)N[C@@H]1CCn2c(=O)[nH]c3cccc(c32)[C@H]1O (mixture of isomers) [Example 30, 7-Hydroxy-6-({1-methyl-3-[3-(trifluoromethyl)phenyl]propyl}amino)-4,5,6,7-tetrahydroimidazo[4,5,1-jk][1]benzazepin-2(1H)-one]",37.1,5.5
"CC(CCc1ccccc1O)N[C@@H]1CCn2c(=O)[nH]c3cccc(c32)[C@H]1O (mixture of isomers) [Example 6b, 7-Hydroxy-6-{[3-(2-hydroxyphenyl)-1-methylpropyl]amino}-4,5,6,7-tetrahydroimidazo[4,5,1-jk][1]benzazepin-2(1H)-one]",2,1.4
"CC(CCc1cccc(CO)c1)N[C@@H]1CCn2c(=O)[nH]c3cccc(c32)[C@H]1O (mixture of isomers) [Example 44, 7-Hydroxy-6-({3-[3-(hydroxymethyl)phenyl]-1-methylpropyl}amino)-4,5,6,7-tetrahydroimidazo[4,5,1-jk][1]benzazepin-2(1H)-one]",75.7,61.7
"CC(=O)Nc1ccccc1CCC(C)NC1CCn2c(=O)[nH]c3cccc(c32)C1O (single isomer, unassigned) [Example 63, N-{2-[3-{[7-Hydroxy-2-oxo-1,2,4,5,6,7-hexahydroimidazo[4,5,1-jk][1]benzazepin-6-yl]amino}butyl]phenyl}acetamide]",39.2,40.8
"CNC(=O)c1cccc(CCC(C)NC2CCn3c(=O)[nH]c4cccc(c43)C2O)c1 (single isomer, unassigned) [Example 62, 3-[3-{[7-Hydroxy-2-oxo-1,2,4,5,6,7-hexahydroimidazo[4,5,1-jk][1]benzazepin-6-yl]amino}butyl]-N-methylbenzamide]",24.3,18.9
"Cc1cc(CCC(C)NC2CCn3c(=O)[nH]c4cccc(c43)C2O)cc(C)c1O (stereo not shown) [Example 15, 7-Hydroxy-6-{[3-(4-hydroxy-3,5-dimethylphenyl)-1-methylpropyl]amino}-4,5,6,7-tetrahydroimidazo[4,5,1-jk][1]benzazepin-2(1H)-one]",221,48.7
"CC(CCc1ccccc1)N[C@@H]1CCn2c(=O)[nH]c3cccc(c32)[C@H]1O (single isomer, unassigned) [Example 9b, 7-Hydroxy-6-[(1-methyl-3-phenylpropyl)amino]-4,5,6,7-tetrahydroimidazo[4,5,1-jk][1]benzazepin-2(1H)-one]",179,34.3
"COc1cccc(CCC(C)N[C@@H]2CCn3c(=O)[nH]c4cccc(c43)[C@H]2O)c1O (single isomer, unassigned) [Example 8a, 7-hydroxy-6-{[3-(2-hydroxy-3-methoxyphenyl)-1-methylpropyl]amino}-4,5,6,7-tetrahydroimidazo[4,5,1-jk][1]benzazepin-2(1H)-one]",200,172
"CC(/C=C/c1ccccc1F)N[C@@H]1CCn2c(=O)[nH]c3cccc(c32)[C@H]1O (single isomer, unassigned) [Example 40a, 6-{[3-(2-Fluorophenyl)-1-methylprop-2-en-1-yl]amino}-7-hydroxy-4,5,6,7-tetrahydroimidazo[4,5,1-jk][1]benzazepin-2(1H)-one]",242,65.1
"CC(CCc1ccccc1)N[C@@H]1CCn2c(=O)[nH]c3cccc(c32)[C@H]1O (single isomer, unassigned) [Example 9d, 7-Hydroxy-6-[(1-methyl-3-phenylpropyl)amino]-4,5,6,7-tetrahydroimidazo[4,5,1-jk][1]benzazepin-2(1H)-one]",5.9,2.3
"CC(CCc1c(F)cccc1Cl)N[C@@H]1CCn2c(=O)[nH]c3cccc(c32)[C@H]1O (mixture of isomers) [Example 32, 6-{[3-(2-Chloro-6-fluorophenyl)-1-methylpropyl]amino}-7-hydroxy-4,5,6,7-tetrahydroimidazo[4,5,1-jk][1]benzazepin-2(1H)-one]",8.6,2.9

# Reference: US20080161288A1, “COMPOUNDS” (Pfizer Inc., priority 2006, published 2008)
